Where a SMILES comes first, the peptide text is derived from it.
Tests used:
Assay in all cases: microbe, parasite or virus in culture
[1] = tested on: A. baumannii AYE; type: cell-based, Acinetobacter baumannii; conditions: A. baumannii AYE (R)
Procedure, shortened: (§1)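 Peptides 128→2 μg/mL, 2-fold series; inoculum ~5 × 10^5 CFU/mL from overnight culture (OD600 0.01, mixed 1:1). MHB non-cation-adjusted for bacteria, RPMI 1640 + 2% glucose for fungi. 37 °C, 20 h, OD600. MIC50/MIC90 at 50%/90% inhibition; n ≥ 3.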

[2] = tested on: A. baumannii ATCC 17978; type: cell-based, Acinetobacter baumannii; conditions: A. baumannii ATCC 17978 (S)
Procedure, shortened: as §1

[3] = tested on: C. auris TDG 1912; type: cell-based, Candida auris; conditions: C. auris TDG 1912
Procedure, shortened: as §1

[4] = tested on: E. coli LEC001; type: cell-based, Escherichia coli; conditions: E. coli LEC001 (R)
Procedure, shortened: as §1

[5] = tested on: E. coli NCTC 12923; type: cell-based, Escherichia coli; conditions: E. coli NCTC 12923 (S)
Procedure, shortened: as §1

[6] = tested on: C. glabrata NCPF 8018; type: cell-based; conditions: C. glabrata NCPF 8018
Procedure, shortened: as §1

[7] = tested on: C. parapsilosis NCPF 3209; type: cell-based; conditions: C. parapsilosis NCPF 3209
Procedure, shortened: as §1

[8] = tested on: C. krusei NCPF 3876; type: cell-based; conditions: C. krusei NCPF 3876
Procedure, shortened: as §1

[9] = tested on: C. albicans NCPF 3281; type: cell-based; conditions: C. albicans NCPF 3281
Procedure, shortened: as §1

[10] = tested on: C. tropicalis NCPF 8760; type: cell-based; conditions: C. tropicalis NCPF 8760
Procedure, shortened: as §1

[11] = tested on: P. aeruginosa NCTC 13437; type: cell-based, Pseudomonas aeruginosa; conditions: P. aeruginosa NCTC 13437 (R)
Procedure, shortened: as §1

[12] = tested on: S. aureus (MRSA) USA300; type: cell-based, Staphylococcus aureus; conditions: S. aureus (MRSA) USA300 (R)
Procedure, shortened: as §1

[13] = tested on: S. aureus (MSSA) ATCC 9144; type: cell-based, Staphylococcus aureus; conditions: S. aureus (MSSA) ATCC 9144 (S)
Procedure, shortened: as §1

[14] = tested on: S. aureus (MRSA) NCTC 13616; type: cell-based, Staphylococcus aureus; conditions: S. aureus (MRSA) NCTC 13616 (R)
Procedure, shortened: as §1

[15] = tested on: K. pneumoniae M6; type: cell-based, Klebsiella pneumoniae; conditions: K. pneumoniae M6 (S)
Procedure, shortened: as §1

[16] = tested on: K. pneumoniae NCTC 13368; type: cell-based, Klebsiella pneumoniae; conditions: K. pneumoniae NCTC 13368 (R)
Procedure, shortened: as §1

[17] = MHB, 37 °C, 20 h, OD600, min. three biological repeats
[18] = 50% growth inhibition, RPMI 1640 + 2% glucose, 37 °C, 20 h, OD600
[19] = 90% growth inhibition, RPMI 1640 + 2% glucose, 37 °C, 20 h, OD600
[20] = MHB, ~5×10^5 CFU/mL, 37 °C, 20 h, OD600, min. three biological repeats
[21] = 50% growth inhibition, RPMI 1640 + 2% glucose, 37 °C, 20 h
[22] = 90% growth inhibition, RPMI 1640 + 2% glucose, 37 °C, 20 h

`CC[C@H](C)[C@H](NC(=O)[C@H](CCCCN)NC(=O)[C@H](CC(C)C)NC(=O)[C@H](C)NC(=O)[C@H](C)NC(=O)[C@H](CCCCN)NC(=O)[C@H](CC(C)C)NC(=O)[C@H](C)NC(=O)[C@@H](N)CCCCN)C(=O)NCC(N)=O` [CPF-P3-10a] (H-KALKAALKIG-NH2) was tested, and the “Modal MIC” value [1, 17] was > 128 µg/mL, the “Modal MIC” value ([1]; shown in µM) was > 122 µM and the “Modal MIC” value [2, 17] was > 128 µg/mL. The “Modal MIC” value ([2]; shown in µM) was > 122 µM, the “Modal MIC50” value [3, 18] was > 128 µg/mL and the “Modal MIC90” value [3, 19] was > 128 µg/mL. For the same compound, the “Modal MIC50” value ([3]; shown in µM) was > 122 µM, the “Modal MIC90” value ([3]; shown in µM) was > 122 µM and the “Modal MIC” value [4, 17] was > 128 µg/mL. The “Modal MIC” value ([4]; shown in µM) was > 122 µM, the “Modal MIC” value [5, 20] was > 128 µg/mL and the “Modal MIC” value ([5]; shown in µM) was > 122 µM. The “Modal MIC50” value [6, 21] was > 128 µg/mL, the “Modal MIC90” value [6, 22] was > 128 µg/mL and the “Modal MIC50” value ([6]; shown in µM) was > 122 µM. The “Modal MIC90” value ([6]; shown in µM) was > 122 µM, the “Modal MIC50” value [7, 21] was > 128 µg/mL and the “Modal MIC90” value [7, 22] was > 128 µg/mL. For the same compound, the “Modal MIC50” value ([7]; shown in µM) was > 122 µM, the “Modal MIC90” value ([7]; shown in µM) was > 122 µM and the “Modal MIC50” value [8, 21] was > 128 µg/mL. The “Modal MIC90” value [8, 22] was > 128 µg/mL, the “Modal MIC50” value ([8]; shown in µM) was > 122 µM and the “Modal MIC90” value ([8]; shown in µM) was > 122 µM. The “Modal MIC50” value [9, 21] was > 128 µg/mL, the “Modal MIC90” value [9, 22] was > 128 µg/mL and the “Modal MIC50” value ([9]; shown in µM) was > 122 µM. The “Modal MIC90” value ([9]; shown in µM) was > 122 µM, the “Modal MIC50” value [10, 21] was > 128 µg/mL and the “Modal MIC90” value [10, 22] was > 128 µg/mL. The “Modal MIC50” value ([10]; shown in µM) was > 122 µM, the “Modal MIC90” value ([10]; shown in µM) was > 122 µM and the “Modal MIC” value [11, 17] was > 128 µg/mL. For the same compound, the “Modal MIC” value ([11]; shown in µM) was > 122 µM, the “Modal MIC” value [12, 17] was > 128 µg/mL and the “Modal MIC” value ([12]; shown in µM) was > 122 µM. The “Modal MIC” value [13, 17] was > 128 µg/mL, the “Modal MIC” value ([13]; shown in µM) was > 122 µM and the “Modal MIC” value [14, 17] was > 128 µg/mL. The “Modal MIC” value ([14]; shown in µM) was > 122 µM, the “Modal MIC” value [15, 17] was > 128 µg/mL and the “Modal MIC” value ([15]; shown in µM) was > 122 µM. The “Modal MIC” value [16, 17] was > 128 µg/mL and the “Modal MIC” value ([16]; shown in µM) was > 122 µM.

With `CC[C@H](C)[C@H](NC(=O)[C@H](CCCCN)NC(=O)[C@H](CC(C)C)NC(=O)[C@H](C)NC(=O)[C@H](C)NC(=O)[C@H](CCCCN)NC(=O)[C@H](CC(C)C)NC(=O)[C@H](C)NC(=O)[C@@H](N)CCCCN)C(=O)NCC(=O)N[C@@H](C)C(=O)N[C@@H](CC(N)=O)C(N)=O` [CPF-P3-12a] (H-KALKAALKIGAN-NH2) the “Modal MIC” value [1, 17] was > 128 µg/mL, the “Modal MIC” value ([1]; shown in µM) was > 103.8 µM and the “Modal MIC” value [2, 17] was > 128 µg/mL. The “Modal MIC” value ([2]; shown in µM) was > 103.8 µM, the “Modal MIC50” value [3, 18] was > 128 µg/mL and the “Modal MIC90” value [3, 19] was > 128 µg/mL. The “Modal MIC50” value ([3]; shown in µM) was > 103.8 µM, the “Modal MIC90” value ([3]; shown in µM) was > 103.8 µM and the “Modal MIC” value [4, 17] was > 128 µg/mL. The “Modal MIC” value ([4]; shown in µM) was > 103.8 µM, the “Modal MIC” value [5, 20] was > 128 µg/mL and the “Modal MIC” value ([5]; shown in µM) was > 103.8 µM. The “Modal MIC50” value [6, 21] was > 128 µg/mL, the “Modal MIC90” value [6, 22] was > 128 µg/mL and the “Modal MIC50” value ([6]; shown in µM) was > 103.8 µM. The “Modal MIC90” value ([6]; shown in µM) was > 103.8 µM, the “Modal MIC50” value [7, 21] was > 128 µg/mL and the “Modal MIC90” value [7, 22] was > 128 µg/mL. The “Modal MIC50” value ([7]; shown in µM) was > 103.8 µM, the “Modal MIC90” value ([7]; shown in µM) was > 103.8 µM and the “Modal MIC50” value [8, 21] was > 128 µg/mL. The “Modal MIC90” value [8, 22] was > 128 µg/mL, the “Modal MIC50” value ([8]; shown in µM) was > 103.8 µM and the “Modal MIC90” value ([8]; shown in µM) was > 103.8 µM. The “Modal MIC50” value [9, 21] was > 128 µg/mL, the “Modal MIC90” value [9, 22] was > 128 µg/mL and the “Modal MIC50” value ([9]; shown in µM) was > 103.8 µM. For the same compound, the “Modal MIC90” value ([9]; shown in µM) was > 103.8 µM, the “Modal MIC50” value [10, 21] was > 128 µg/mL and the “Modal MIC90” value [10, 22] was > 128 µg/mL. The “Modal MIC50” value ([10]; shown in µM) was > 103.8 µM, the “Modal MIC90” value ([10]; shown in µM) was > 103.8 µM and the “Modal MIC” value [11, 17] was > 128 µg/mL. The “Modal MIC” value ([11]; shown in µM) was > 103.8 µM, the “Modal MIC” value [12, 17] was > 128 µg/mL and the “Modal MIC” value ([12]; shown in µM) was > 103.8 µM. The “Modal MIC” value [13, 17] was > 128 µg/mL, the “Modal MIC” value ([13]; shown in µM) was > 103.8 µM and the “Modal MIC” value [14, 17] was > 128 µg/mL. For the same compound, the “Modal MIC” value ([14]; shown in µM) was > 103.8 µM, the “Modal MIC” value [15, 17] was > 128 µg/mL and the “Modal MIC” value ([15]; shown in µM) was > 103.8 µM. For the same compound, the “Modal MIC” value [16, 17] was > 128 µg/mL and the “Modal MIC” value ([16]; shown in µM) was > 103.8 µM.
